# Where “and” joins values, the source holds several entries; their conditions need not be identical. Equal values may be shown once. Read-outs that look alike come from different tables or passages of the source.
# Assays:
# in vivo = conditions: male, BALB/c, mouse, in vivo, po, 50 mg/kg
# [1] = Pharmacokinetic analysis of vepafestinib in rats (microdialysis PFC, CSF, plasma); assay type: in vivo, male Han Wistar rats
smiles,measurement,setting,value
"COCc1ccc(NC(=O)c2c(C#CCN3CCOCC3)n(C3(C)CC3)c3ncnc(N)c23)cc1 [Vepafestinib, 4-amino-N-[4-(methoxymethyl)phenyl]-7-(1-methylcyclopropyl)-6-[3-(morpholin-4-yl)prop-1-yn-1-yl]-7H-pyrrolo[2,3-d]pyrimidine-5-carboxamide]",Kp,in vivo,1.8
same,Kp uu,in vivo,1.3
same,"Concentration in Rats, Plasma (free fraction)","[1]; 3 mg/kg, 30 min, individual rats",411 nM and 290 nM and 384 nM and 193 nM
same,"Concentration in Rats, Plasma (free fraction)","[1]; 3 mg/kg, 60 min, individual rats",248 nM and 212 nM and 391 nM and 168 nM
same,concentration at 480 min,"[1]; 3 mg/kg, 60 min, individual rats, read-out: Concentration in Rats, Cerebrospinal fluid",109 nM
same,concentration at 120 min,"[1]; 3 mg/kg, 60 min, individual rats, read-out: Concentration in Rats, Plasma (total)",1620 nM and 1390 nM and 2560 nM and 1100 nM
same,"Concentration in Rats, Plasma (free fraction)","[1]; 3 mg/kg, 120 min, individual rats",129 nM and 143 nM and 163 nM and 115 nM
same,"Concentration in Rats, Plasma (free fraction)","[1]; 3 mg/kg, 180 min, individual rats",68 nM and 120 nM and 97.8 nM and 63 nM
same,"Concentration in Rats, Plasma (free fraction)","[1]; 3 mg/kg, 300 min, individual rats",17.3 nM and 28.1 nM and 50.7 nM and 32.7 nM
same,"Concentration in Rats, Plasma (free fraction)","[1]; 3 mg/kg, 360 min, individual rats",8.57 nM and 13.7 nM and 36.5 nM
same,"Concentration in Rats, Plasma (free fraction)","[1]; 3 mg/kg, 480 min, individual rats",24.3 nM
same,"Concentration in Rats, Plasma (free fraction)","[1]; 10 mg/kg, 30 min, individual rats",1323 nM and 1543 nM and 1071 nM and 1204 nM
same,"Concentration in Rats, Plasma (free fraction)","[1]; 10 mg/kg, 60 min, individual rats",1016 nM and 1083 nM and 660 nM and 921 nM
same,"Concentration in Rats, Plasma (free fraction)","[1]; 10 mg/kg, 120 min, individual rats",503 nM and 680 nM and 665 nM and 714 nM
same,"Concentration in Rats, Plasma (free fraction)","[1]; 10 mg/kg, 180 min, individual rats",272 nM and 513 nM and 529 nM and 374 nM
same,"Concentration in Rats, Plasma (free fraction)","[1]; 10 mg/kg, 240 min, individual rats",133 nM and 237 nM and 243 nM and 244 nM
same,"Concentration in Rats, Plasma (free fraction)","[1]; 10 mg/kg, 300 min, individual rats",53.6 nM and 90.5 nM and 129 nM and 102 nM
same,"Concentration in Rats, Plasma (free fraction)","[1]; 10 mg/kg, 360 min, individual rats",30.4 nM and 53.8 nM and 63.3 nM and 53.6 nM
same,"Concentration in Rats, Plasma (free fraction)","[1]; 10 mg/kg, 480 min, individual rats",15.6 nM and 25.5 nM and 17.7 nM
same,"Concentration in Rats, Plasma (free fraction)","[1]; 50 mg/kg, 30 min, individual rats",2310 nM and 2399 nM and 2002 nM and 1803 nM
same,"Concentration in Rats, Plasma (free fraction)","[1]; 50 mg/kg, 60 min, individual rats",1589 nM and 1818 nM and 1742 nM and 1803 nM
same,"Concentration in Rats, Plasma (free fraction)","[1]; 50 mg/kg, 120 min, individual rats",1415 nM and 2506 nM and 1273 nM and 2017 nM
same,"Concentration in Rats, Plasma (free fraction)","[1]; 50 mg/kg, 180 min, individual rats",947 nM and 2200 nM and 964 nM and 1305 nM
same,"Concentration in Rats, Plasma (free fraction)","[1]; 50 mg/kg, 240 min, individual rats",591 nM and 2093 nM and 1166 nM and 1108 nM
same,"Concentration in Rats, Plasma (free fraction)","[1]; 50 mg/kg, 300 min, individual rats",740 nM and 1435 nM and 817 nM and 694 nM
same,"Concentration in Rats, Plasma (free fraction)","[1]; 50 mg/kg, 360 min, individual rats",891 nM and 1181 nM and 821 nM and 400 nM
same,"Concentration in Rats, Plasma (free fraction)","[1]; 50 mg/kg, 480 min, individual rats",20.5 nM and 680 nM and 743 nM and 651 nM
same,concentration at 120 min,"[1]; male, Han Wistar, rat, cerebrospinal fluid, oral, 3 mg/kg, 120 min, individual rats, read-out: Concentration in Rats, Cerebrospinal fluid",67.4 nM
same,concentration at 240 min,"[1]; male, Han Wistar, rat, cerebrospinal fluid, oral, 3 mg/kg, 240 min, individual rats, read-out: Concentration in Rats, Cerebrospinal fluid",28.8 nM
same,concentration at 480 min,"[1]; male, Han Wistar, rat, cerebrospinal fluid, oral, 3 mg/kg, 480 min, individual rats, read-out: Concentration in Rats, Cerebrospinal fluid",8.78 nM
same,concentration at 30 min,"[1]; male, Han Wistar, rat, cerebrospinal fluid, oral, 10 mg/kg, 30 min, individual rats, read-out: Concentration in Rats, Cerebrospinal fluid",961 nM
same,concentration at 120 min,"[1]; male, Han Wistar, rat, cerebrospinal fluid, oral, 10 mg/kg, 120 min, individual rats, read-out: Concentration in Rats, Cerebrospinal fluid",585 nM
same,concentration at 480 min,"[1]; male, Han Wistar, rat, cerebrospinal fluid, oral, 50 mg/kg, rats, 50 mg/kg, 480 min, individual animals, read-out: Concentration in Cerebrospinal fluid",430 nM
same,concentration at 480 min,"[1]; male, Han Wistar, rat, cerebrospinal fluid, oral, 50 mg/kg, 480 min, individual rats, read-out: Concentration in Rats, Cerebrospinal fluid",486 nM
same,concentration at 120 min,"[1]; male, Han Wistar, rat, plasma (total), oral, 3 mg/kg, 120 min, individual rats, read-out: Concentration in Rats, Plasma (total)",845 nM
same,concentration at 180 min,"[1]; male, Han Wistar, rat, plasma (total), oral, 3 mg/kg, 180 min, individual rats, read-out: Concentration in Rats, Plasma (total)",445 nM
same,concentration at 480 min,"[1]; male, Han Wistar, rat, plasma (total), oral, 3 mg/kg, 480 min, individual rats, read-out: Concentration in Rats, Plasma (total)",159 nM
same,concentration at 30 min,"[1]; male, Han Wistar, rat, plasma (total), oral, 10 mg/kg, 30 min, individual rats, read-out: Concentration in Rats, Plasma (total)",8660 nM
same,concentration at 60 min,"[1]; male, Han Wistar, rat, plasma (total), oral, 10 mg/kg, 60 min, individual rats, read-out: Concentration in Rats, Plasma (total)",6650 nM
same,concentration at 120 min,"[1]; male, Han Wistar, rat, plasma (total), oral, 10 mg/kg, 120 min, individual rats, read-out: Concentration in Rats, Plasma (total)",3290 nM
same,concentration at 180 min,"[1]; male, Han Wistar, rat, plasma (total), oral, 10 mg/kg, 180 min, individual rats, read-out: Concentration in Rats, Plasma (total)",1780 nM
same,concentration at 240 min,"[1]; male, Han Wistar, rat, plasma (total), oral, 10 mg/kg, 240 min, individual rats, read-out: Concentration in Rats, Plasma (total)",872 nM
same,concentration at 480 min,"[1]; male, Han Wistar, rat, plasma (total), oral, 10 mg/kg, 480 min, individual rats, read-out: Concentration in Rats, Plasma (total)",102 nM
same,concentration at 120 min,"[1]; male, Han Wistar, rat, plasma (total), oral, 50 mg/kg, rats, 50 mg/kg, 120 min, individual animals, read-out: Concentration in Plasma (total)",9260 nM
